Reference: article PMC7463460, “Structure and Antiparasitic Activity Relationship of Alkylphosphocholine Analogues against Leishmania donovani” (Microorganisms, 2020)
Where “and” joins values, the source holds several entries; their conditions need not be identical. Equal values may be shown once.

Tests used:
Type in all cases: cell-based, Leishmania donovani
[1] = tested on: L. donovani 275/18 (Sb-resistant) intracellular amastigotes; test: Intracellular amastigote assay, Sb-resistant strain 275/18; conditions: for IC50: Leishmania donovani, read-out: Mean IC50 Amastigotes; for Cross-Resistance Index (CRI50) Amast: strain 275/18, Sb-resistant vs Sb-S; for Selectivity Index (SI50): strain 275/18, Sb-resistant, macrophage CC50 / amastigote IC50
Source text: (§1) L. donovani cloned strains with different Sb susceptibility backgrounds were derived from isolates obtained from VL patients at the B.P. Koirala Institute of Health Sciences, Dharan, Nepal: MHOM/NP/02/BPK282/0cl4 (Sb sensitive, Sb-S). MHOM/NP/02/BPK087/0cl11 (Sb intermediate, Sb-I) and MHOM/NP/02/BPK275/0cl18 (Sb resistance, Sb-R [13]). In addition, Milt-resistant parasites raised against these three Sb sensitivity backgrounds and the Sb-sensitive strain (MHOM/ET/67:LV82) was also used in studies. Luciferase expressing promastigotes for the LV82 and Nepalese strains were prepared using previously published methods and the integrative construct (a gift from Dr D.F. Smith), designated pGL1313, contained pSSU-int fragments to facilitate integration into the ribosomal RNA locus of Leishmania.
In the macrophage studies, the method described in previous studies was used as follows. Briefly, bone-marrow-derived BALB/c macrophages (1–2 × 10^5) in 100 µL complete RPMI 1640 medium were added to the wells of a 96 well plate and left to adhere for 24 h at 37 °C, 5% CO₂/95% air. The medium was removed and 100 µL of the appropriate L. donovani luciferase-expressing promastigotes line (parasite: host cell ratio 1:10, 1:20 or 1:40) was added to each well, the ratio used reflected the infectivity of the strain and ensured that control data gave a bioluminescent signal within the same range. […] The variability in infectivity complicates strain to strain comparisons, but we decided to focus on achieving good infection levels in controls so that the effect of drug treatment could be determined. It is possible that intracellular macrophage parasites could have been at different developmental stages at 24 h post-infection. […] Therefore, we assumed that the effect of compounds on the amastigote stage rather than the promastigotes stage was determined in in vitro macrophage studies.
The plate was incubated for a further 24 h, the medium removed, and each well washed with PBS to eliminate non-internalized parasites, which were monitored microscopically. When the wells were devoid of external parasites, 100 µL of the medium alone (control) or appropriate APC compound was then added (0.01–0.197 µg/mL, n = 3/treatment). […]. All plates were incubated for 72 h at 37 °C, 5% CO₂/95% air. Wells with macrophage and with no drug or promastigotes added were used in control experiments.
(§2) Luciferin solution (1 µg/mL in 20 µL medium without FCS) was added to the appropriate wells of the 96-well plate at the end of the experiment and the amount of light emitted/well was measured using a luminometer (Biotek Synergy HT, relative light units) using a wavelength/bandwidth of 440/40 nm, or IVIS® imaging (Spectrum Living Image system®, total flux, photons/sec).
The effect of drug treatment on parasite survival was determined by calculating the mean suppression in the light emitted from the drug-treated experimental sample compared to the mean control value and used to calculate the IC50 using Grafit® software (version 5.0, Erithacus Software, East Grinstead, West Sussex, UK). The effect of drug alone on the viability of uninfected macrophages was determined using the same experimental protocol above, but cell viability was determined using an alamar blue colorimetric assay. At the end of the incubation period, cells’ 10 µL resazurin solution (0.02% w/v) was added to control and drug treated cells and the absorbance of samples was read at 575 and 595 nm. The effect of drug treatment on cell survival, which correlates with the magnitude of dye reduction, was expressed as percentage viability (or alamar blue reduction) and determined using the formula provided in the manufacturer’s protocol % alamar blue reduction=(εoxλ)(Aλ1)−(εoxλ1)(Aλ2)/(εredλ1)(A^′λ2)−(εredλ2)(A^′λ1)x100 […]

[2] = tested on: L. donovani 087/11 (Sb-intermediate) promastigotes; test: microbe, parasite or virus in culture; conditions: for IC50: Leishmania donovani, read-out: Mean IC50 Promastigotes; for Promast: Amast Ratio: strain 087/11, Sb-intermediate; for Cross-Resistance Index (CRI50) Promast: strain 087/11, Sb-intermediate vs Sb-S
Source text: as §1, §2
The effect of drug treatment on parasite survival was determined by calculating the mean suppression in the light emitted from the drug-treated experimental sample compared to the mean control value and used to calculate the IC50 using Grafit® software (version 5.0, Erithacus Software, East Grinstead, West Sussex, UK). The effect of drug alone on the viability of uninfected macrophages was determined using the same experimental protocol above, but cell viability was determined using an alamar blue colorimetric assay. […] The effect of drug treatment on cell survival, which correlates with the magnitude of dye reduction, was expressed as percentage viability (or alamar blue reduction) and determined using the formula provided in the manufacturer’s protocol % alamar blue reduction=(εoxλ)(Aλ1)−(εoxλ1)(Aλ2)/(εredλ1)(A^′λ2)−(εredλ2)(A^′λ1)x100
Cross resistance (CRI50) indexes were determined as Cross selectivity indices (CRI)=mean IC50 value for the relevant drug−resistant strain i.e., Sb−I or Sb−R / mean IC50 value drug−sensitive strain Sb−S

[3] = tested on: L. donovani LV82 promastigotes; test: Luciferase-expressing promastigote assay, strain LV82; conditions: for Promast: Amast Ratio / IC90: LV82; for IC50 / IC90: Leishmania donovani; for IC50: 72 h
Description: The anti-leishmanial activity of APC against L. donovani luciferase-expressing promastigotes was determined by adding of the appropriate 100 µL parasite line (10^6 cells/mL) to the wells of a 96-well plate and adding 100 µL medium alone (controls) or 100 µL of APC compound (0.01 µg/mL–6.25 µg/mL, n = 3/treatment). The plate was incubated for 72 h at 25 °C. In combination assays, the additional compound/compounds, at a final concentration of 0.195 or 0.39 µg/mL, was added to the initial APC being tested.
as §2
The effect of drug treatment on parasite survival was determined by calculating the mean suppression in the light emitted from the drug-treated experimental sample compared to the mean control value and used to calculate the IC50 using Grafit® software (version 5.0, Erithacus Software, East Grinstead, West Sussex, UK). The effect of drug alone on the viability of uninfected macrophages was determined using the same experimental protocol above, but cell viability was determined using an alamar blue colorimetric assay. At the end of the incubation period, cells’ 10 µL resazurin solution (0.02% w/v) was added to control and drug treated cells and the absorbance of samples was read at 575 and 595 nm. The effect of drug treatment on cell survival, which correlates with the magnitude of dye reduction, was expressed as percentage viability (or alamar blue reduction) and determined using the formula provided in the manufacturer’s protocol % alamar blue reduction=(εoxλ)(Aλ1)−(εoxλ1)(Aλ2)/(εredλ1)(A^′λ2)−(εredλ2)(A^′λ1)x100

Compound	IC50 [1]	Cross-Resistance Index (CRI50) Amast [1]	Selectivity Index (SI50) [1]	IC50 [2]	Promast: Amast Ratio [2]	Cross-Resistance Index (CRI50) Promast [2]	Promast: Amast Ratio [3]	Promastigotes mean IC50 ([3]; LV82, 3 days, 25 °C) [µg/mL]	IC50 ([3]; LV82, 3 days, 25 °C)	IC90 [3] [µg/mL]	fold more active than Milt (APC16) ([3]; promastigotes) [fold]
CCCCCCCCCCCCOP(=O)([O-])OCC[N+](C)(C)C [APC12, dodecylphosphocholine]	0.23 µg/mL and 650 nM	0.88	153.83	0.42 µg/mL and 1.19 µM	2.11	0.76	16.46	0.16 ± 0.00	0.163 µg/mL and 460 nM	1.47	10
CCCCCCCCCCCCCCOP(=O)([O-])OCC[N+](C)(C)C [APC14, tetradecylphosphocholine]	0.28 µg/mL and 740 nM	2.33	146.04	0.21 µg/mL and 550 nM	1.05	0.48	7.97	–	0.2 µg/mL and 530 nM	–	–
CCCCCCCCCCCCCCCCOP(=O)([O-])OCC[N+](C)(C)C [APC16, hexadecylphosphocholine, reference compound]	0.51 µg/mL and 1.25 µM	–	–	–	5.15	–	7.00	–	0.7 µg/mL and 1.72 µM	6.3 ± 0.1	–
